Data published in the supplement of paper PMC8882468.
± gives the standard deviation of the averaged measurements.

Tests used:
Test in all cases: CTG-3D luminescence at 96 h relative to day-0 seeding control (ratio to day 0); higher = more growth / less cytotoxicity; PDxO 3D drug screen, 96 h, CTG-3D normalised to day-0 seeding control.
HCI-011.E2 = tested on: HCI-011.E2 (organoid from an ER-positive breast cancer xenograft)
HCI-008 = tested on: HCI-008 (organoid from a HER2-enriched breast cancer xenograft)
HCI-027 = tested on: HCI-027 (organoid from a triple-negative breast cancer xenograft)
HCI-017.E2 = tested on: HCI-017.E2 (organoid from an ER-positive breast cancer xenograft)
MDA-MB-231 = tested on: MDA-MB-231
HCI-015 = tested on: HCI-015 (organoid from a triple-negative breast cancer xenograft)
HCI-005.E2 = tested on: HCI-005.E2 (organoid from a breast cancer xenograft with a HER2-positive history)

CN(Cc1cnc2nc(N)nc(N)c2n1)c1ccc(C(=O)N[C@@H](CCC(=O)O)C(=O)O)cc1 [methotrexate]
CTG-3D luminescence at 96 h
Conditions | 12.5 pM | 0.00025 µM | 0.005 µM | 0.1 µM | 1 µM | 10 µM | 100 µM | 625 fM
HCI-005.E2 | 2.09 ± 0.69 | 1.81 ± 0.6 | 1.86 ± 0.98 | 1.02 ± 0.19 | 0.572 ± 0.073 | 0.678 ± 0.16 | 0.678 ± 0.15 | 2.1 ± 0.39
HCI-011.E2 | 1.46 ± 0.36 | 1.77 ± 0.6 | 1.44 ± 0.56 | 1.83 ± 0.1 | 1.62 ± 0.63 | 2.08 ± 0.72 | 2.21 ± 0.71 | 1.59 ± 0.47
HCI-017.E2 | 2.07 ± 0.41 | 2.19 ± 0.051 | 2.14 ± 0.3 | 2 ± 0.15 | 2.22 ± 0.17 | 2.19 ± 0.089 | 2.15 ± 0.42 | 2.05 ± 0.14
MDA-MB-231 | 4.34 ± 1.4 | 4.29 ± 1.5 | 4.44 ± 1.4 | 4.37 ± 1.3 | 2.63 ± 0.79 | 2.29 ± 0.75 | 2.66 ± 1.1 | 4.36 ± 1.3

CTG-3D luminescence at 96 h
Conditions | 12.5 pM | 0.00025 µM | 0.005 µM | 0.1 µM | 1 µM | 10 µM | 100 µM | 625 fM
HCI-008, days in culture: 228 | 1.82 ± 0.22 | 1.9 ± 0.45 | 1.53 ± 0.31 | 1.98 ± 0.15 | 1.97 ± 0.14 | 1.82 ± 0.34 | 1.2 ± 0.26 | 2.01 ± 0.51
HCI-008, days in culture: 244 | 1.4 | 1.83 | 1.93 | 2.13 | 1.59 | 1.93 | 1.66 | 2.31
HCI-011.E2, days in culture: 74 | 1.97 | 2.4 | 1.99 | 2.27 | 2.49 | 3.6 | 2.24 | 2.17
HCI-015, days in culture: 172 | 2.51 | 2.28 | 2.36 | 1.31 | 1.55 | 1.13 | 1.06 | 2.55
HCI-015, days in culture: 191 | 1.94 | 1.41 | 1.62 | 1.1 | 1.23 | 0.977 | 0.939 | 1.36
HCI-015, days in culture: 218 | 1.75 | 1.57 | 1.63 | 1.69 | 1.48 | 1.63 | 1.21 | 1.79
HCI-017.E2, days in culture: 85 | 2.97 | 2.49 | 2.7 | 2.26 | 2.43 | 2.05 | 2.13 | 2.34
HCI-027, days in culture: 176 | 2.07 | 1.47 | 2.43 | 1.51 | 1.97 | 1.55 | 1.68 | 1.28
HCI-027, days in culture: 194 | 1.69 | 1.38 | 1.57 | 1.17 | 1.04 | 1.07 | 0.572 | 1.44
HCI-027, days in culture: 201 | 1.69 | 1.66 | 2.26 | 1.14 | 0.939 | 0.886 | 0.445 | 1.25

CNC(=O)c1cccc(-c2ccc3c(N4CCOC[C@@H]4C)nc(N4CCOC[C@@H]4C)nc3n2)c1 [vistusertib]
CTG-3D luminescence at 96 h
Conditions | 12.5 pM | 0.00025 µM | 0.005 µM | 0.1 µM | 1 µM | 10 µM | 100 µM | 625 fM
HCI-005.E2 | 1.89 ± 0.48 | 2.02 ± 0.097 | 2.14 ± 0.46 | 2.05 ± 0.42 | 0.528 ± 0.063 | 0.53 ± 0.097 | 0.57 ± 0.21 | 1.98 ± 0.2
HCI-011.E2 | 1.477 ± 0.0098 | 1.841 ± 0.016 | 1.52 ± 0.22 | 1.23 ± 0.041 | 0.256 ± 0.0052 | 0.212 ± 0.016 | 0.057 ± 0.0028 | 1.59 ± 0.38
HCI-017.E2 | 1.6 ± 0.21 | 2.166 ± 0.018 | 1.94 ± 0.41 | 1.38 ± 0.21 | 0.698 ± 0.14 | 0.585 ± 0.11 | 0.418 ± 0.13 | 2.18 ± 0.067
MDA-MB-231 | 4.58 ± 1.4 | 4.53 ± 1.6 | 4.66 ± 1.6 | 4.35 ± 1.2 | 3.31 ± 0.91 | 2.7 ± 0.56 | 1.9 ± 0.39 | 4.64 ± 1.4

CTG-3D luminescence at 96 h
Conditions | 12.5 pM | 0.00025 µM | 0.005 µM | 0.1 µM | 1 µM | 10 µM | 100 µM | 625 fM
HCI-008, days in culture: 228 | 1.54 ± 0.38 | 1.64 ± 0.24 | 1.41 ± 0.54 | 0.913 ± 0.07 | 0.71 ± 0.13 | 0.548 ± 0.015 | 0.289 ± 0.032 | 1.66 ± 0.096
HCI-008, days in culture: 244 | 1.33 | 1.73 | 2.19 | 1.74 | 1.08 | 0.812 | 0.329 | 2.1
HCI-011.E2, days in culture: 74 | 3.1 | 2.54 | 2.03 | 1 | 0.26 | 0.247 | 0.0598 | 2.38
HCI-015, days in culture: 172 | 2.36 | 1.61 | 2.07 | 0.997 | 0.995 | 0.545 | 0.36 | 2.7
HCI-015, days in culture: 191 | 1.84 | 1.24 | 1.54 | 0.827 | 0.859 | 0.436 | 0.329 | 1.43
HCI-015, days in culture: 218 | 2.16 | 1.84 | 2.09 | 1.41 | 0.874 | 0.543 | 0.305 | 2.18
HCI-017.E2, days in culture: 85 | 3.03 | 2.04 | 2.83 | 1.99 | 0.732 | 0.76 | 0.421 | 2.95
HCI-027, days in culture: 176 | 2.07 | 1.54 | 3.05 | 1.73 | 0.81 | 0.32 | 0.123 | 2.96
HCI-027, days in culture: 194 | 1.93 | 1.49 | 1.77 | 1.58 | 1.03 | 0.803 | 0.226 | 1.84
HCI-027, days in culture: 201 | 1.74 | 2.52 | 2.47 | 2.11 | 1.06 | 0.501 | 0.169 | 2.26
